The values that follow come from patent US10350210B2, “EGFR and ALK dual inhibitor” (PRECEDO PHARMACEUTICALS CO., LTD, priority 2015, dated 2019).

In data set [1] the test system is non-small cell lung cancer cell PC-9 subcutaneous tumors. Put plainly: Mouse tumor model of non-small cell lung cancer cell PC-9. The note with it: PC-9 tumor model; for tumor inhibition rate: Bal b/c mice, after 8 days of administration. The class given is in vivo. The procedure:
24 Bal b/c female mice, 4-6 weeks old, were purchased from Shanghai SLAC Laboratory Animal Co., Ltd., and maintained in an SPF laboratory. Drinking water and bedding were both sterilized by autoclaving. All operations involving the mice were performed under aseptic conditions. At day 0, 5×10^6 non-small cell lung cancer cells PC9 (purchased from ATCC) were injected subcutaneously into the left flank of all mice. At day 15, all mice were divided into four groups (6 mice per group), and the first group of mice were orally administered with methyl cellulose (HKI) solvent, the second group of mice were orally administered with Compound 1 at a dose of 25 mg/kg mouse weight, the third group of mice were orally administered with Compound 1 at a dose of 50 mg/kg mouse weight, and the fourth group of mice were orally administered with Compound 1 at a dose of 100 mg/kg mouse weight daily. Starting from the administration, the length/width of the subcutaneous tumor was measured daily with a vernier caliper, and the weight of the mice was recorded daily to observe the effect of Compound 1 on the body weight of the mice. The mice were sacrificed at day 36 and the subcutaneous tumors were collected. The tumors were weighed, and then the tumor tissues were used to prepare protein lysates for use. The growth trend of the subcutaneous tumor within 16-36 days was plotted, wherein the tumor volume was calculated as length×width×width/2 mm^3.

Data set [2] concerns EGFR protein (wild-type EGFR, A549). The experiment in a line: Effect on signaling pathway in cells, A549. Format: cell-based, human. The note with it: 0.03-3 μM, 4 h. From the text:
In four cell lines (all purchased from ATCC) including non-small cell lung cancer cell line A549 (expressing wild-type EGFR gene), non-small cell lung cancer cell line H1975 (expressing EGFR L858R/T790M double mutant gene), non-small cell lung cancer cell line H3255 (expressing EGFR L858R mutant gene) and non-small cell lung cancer cell line PC-9 (expressing EGFR delE746_A750 mutant gene), the effect of Compound 1 on EGFR or other protein kinases related to signaling pathways of EGFR such as Stat3, AKT, ErK, eIF4E, 4EBP1, P70S6K was assessed by assaying a number of cellular biochemical and functional endpoints. […] The effect of Compound 1 on phosphorylation of Stat3Y705, AKT T308, AKT 5473, Erk T202/204, EGFR Y1068, P70S6K Thr389, eIF4E Ser209, Erk T202/204, 4EBP1 (Thr37/46) in these cell lines was assayed (FIGS. 1a to 1d).

Data set [3] relates to BaF3-ALK-F1174L. Put plainly: Cell growth (Cell Titer-Glo viability), BaF3-ALK-F1174L. The class given is cell-based. Conditions: Mus musculus; BaF3-ALK-F1174L (mutant ALK F1174L kinase), 72 hrs. A digest of the protocol:
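Mouse BaF3 cells retrovirally transduced with human kinase fused to N-terminal TEL fragment, then IL-3 withdrawn so proliferation depends on the transgene. HCC827 carries EGFR del19 and NCI-H3255 EGFR L858R. Viable cells were quantified by CellTiter-Glo chemiluminescence on a microplate reader.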

Entries after “also recorded” stand apart in the source; their conditions may differ.

Consider `C=CC(=O)Nc1cc(Nc2ncc(Cl)c(Nc3ccccc3S(=O)(=O)C(C)C)n2)c(OC)cc1N1CCN(CC)CC1` [Compound 1, N-(5-(5-chloro-4-(2-(isopropylsulfonyl)phenylamino)pyrimidin-2-ylamino)-2-(4-ethylpiperazin-1-yl)-4-methoxyphenyl)acrylamide], for which the values for the tumor inhibition rate in data set [1] (oral daily 25 mg/kg), in data set [1] (oral daily 50 mg/kg) and in data set [1] (oral daily 100 mg/kg) were 89.8%, 95.1% and 98.7%, respectively. For the same compound, the “body weight of the mice” value in data set [1] (oral daily 25 mg/kg, 25 mg/kg) is “barely affect the body weight; also recorded: did not decrease”; in data set [1] (oral daily 50 mg/kg) it was “did not decrease”. Moreover, the “effect on phosphorylation of EGFR protein and of STAT3, S6K, AKT, ERK, eIF4E” value in data set [2] is “little effect”.
What is called GI50 is the concentration giving 50% growth inhibition. Low readings indicate greater sensitivity of the cells, high ones lower sensitivity of the cells. Compound `C=CC(=O)Nc1cc(Nc2ncc(Cl)c(Nc3ccccc3S(=O)(=O)C(C)C)n2)c(OC)cc1N1CCCN(C)CC1` [Compound 10, N-(5-(5-chloro-4-(2-(isopropylsulfonyl)phenylamino)pyrimidin-2-ylamino)-4-methoxy-2-(4-methyl-1,4-homopiperazin-1-yl)phenyl)acrylamide] had a GI50 in data set [3] of 1500 nM.
